Source: publication PMC6154319, “Intestinal Transport Characteristics and Metabolism of C-Glucosyl Dihydrochalcone, Aspalathin” (Molecules : A Journal of Synthetic Chemistry and Natural …, 2017)
Like-named read-outs stand apart in the source and are kept apart here. Marks after values point to notes of the source that are not given here.

What was measured:
[1] = Lipophilicity, LogD7.4 (n-octanol / phosphate buffer shake flask); assay type: physicochemical; conditions: phosphate buffer pH 7.4 / n-octanol
Protocol: For determination of the lipophilicity of aspalathin, a 10 mM stock solution prepared in DMSO was used to spike (100 µM) a 1:1 mixture of phosphate buffer (pH 7.4) and n-octanol. The solutions were shaken vigorously (1500 rpm) on an orbital shaker for 4 h at room temperature. Thereafter, the samples were centrifuged (3500 rpm, 2700× g) in order to fully separate the two immiscible fluids. The samples analysed using HPLC-DAD (Agilent 1200 Rapid Resolution HPLC) and the partition coefficient, LogD7.4 calculated.

[2] = Stability of aspalathin (in SB1) in water and HEPES buffer; assay type: physicochemical; conditions: 2 h incubation, aspalathin in extract SB1
SGLT1 = molecular target: T1, SGLT1 (Homo sapiens, UniProt P13866); conditions: aspalathin 100 µM; 100 µM phloridzin (SGLT1)
T1 sequence (P13866 1-664): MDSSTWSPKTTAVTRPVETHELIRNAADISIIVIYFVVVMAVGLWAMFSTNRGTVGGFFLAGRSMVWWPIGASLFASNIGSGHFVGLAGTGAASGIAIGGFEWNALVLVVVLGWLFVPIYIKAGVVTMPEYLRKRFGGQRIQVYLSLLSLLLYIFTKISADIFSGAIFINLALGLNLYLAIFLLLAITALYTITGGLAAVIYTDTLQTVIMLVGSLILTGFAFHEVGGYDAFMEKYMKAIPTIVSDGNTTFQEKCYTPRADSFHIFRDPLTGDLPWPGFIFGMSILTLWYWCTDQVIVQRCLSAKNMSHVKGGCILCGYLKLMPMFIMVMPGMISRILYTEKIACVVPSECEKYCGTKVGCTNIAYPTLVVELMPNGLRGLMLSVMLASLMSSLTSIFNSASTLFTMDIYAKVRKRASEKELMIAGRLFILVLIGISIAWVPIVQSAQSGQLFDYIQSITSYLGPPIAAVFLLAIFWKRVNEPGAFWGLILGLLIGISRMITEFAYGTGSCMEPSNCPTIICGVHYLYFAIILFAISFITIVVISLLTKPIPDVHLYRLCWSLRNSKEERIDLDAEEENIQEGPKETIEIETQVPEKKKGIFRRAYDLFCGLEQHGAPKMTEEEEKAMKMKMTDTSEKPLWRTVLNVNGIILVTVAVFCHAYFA
Protocol: (§1) The cell monolayers were equilibrated briefly with transport buffer, pH 6.0 (HBSS with 2-(N-morpholino) ethanesulphonic acid (MES)) on the apical side and pH 7.4 (HBSS with HEPES) on the basolateral side, to remove traces of the culture media. Following this, transport buffers were added for 30 min prior to the addition of treatment (inhibitors were added during this step when required, as well as during the subsequent treatment incubation step). After equilibration, the plates containing transport medium were incubated for 30 min at 37 °C at 5% CO2 in 95% humidified air and the TEER value of the monolayer determined. […] For basolateral-to-apical compartment studies, 2.4 mL of treatment at the same concentrations in HBSS (pH 7.4), was added to the basolateral compartment.
(§2) To assess whether aspalathin was co-transported with glucose, its transport (100 µM) at both high (20.5 mM) and low (5.5 mM) glucose concentrations, mimicking the intestinal lumen glucose concentrations pre- and post-meals, was monitored. This was followed by experiments performed in the presence and absence of SGLT1 (100 µM phloridzin), GLUT2 (100 µM phloretin) and efflux, PgP (100 µM verapamil) inhibitors.
(§3) Samples (1.2 mL) were withdrawn from the basolateral or the apical compartment to measure the concentration of aspalathin uptake and efflux, respectively at 0, 0.5, 1, 1.5, and 2 h under sink conditions (the sample aliquot replaced with equal volume of relevant transport buffer). Sample aliquots (350 µL) were frozen in liquid nitrogen after the addition of ascorbic acid (35 µL of 10% solution) and stored at −65 °C until HPLC analysis. Results were corrected for dilution and expressed as cumulative transport (% of initial dose) as a function of time. Papp (cm/s) for bi-directional transport studies was calculated as previously described. Transport of other major flavonoids in the matrices, i.e., nothofagin, the 3-deoxy analogue of aspalathin and its flavone derivatives, orientin and isoorientin, were also determined.

PgP = PgP (Homo sapiens, UniProt P08183); conditions: aspalathin 100 µM; 100 µM verapamil (PgP)
PgP, sequence (P08183 whole entry): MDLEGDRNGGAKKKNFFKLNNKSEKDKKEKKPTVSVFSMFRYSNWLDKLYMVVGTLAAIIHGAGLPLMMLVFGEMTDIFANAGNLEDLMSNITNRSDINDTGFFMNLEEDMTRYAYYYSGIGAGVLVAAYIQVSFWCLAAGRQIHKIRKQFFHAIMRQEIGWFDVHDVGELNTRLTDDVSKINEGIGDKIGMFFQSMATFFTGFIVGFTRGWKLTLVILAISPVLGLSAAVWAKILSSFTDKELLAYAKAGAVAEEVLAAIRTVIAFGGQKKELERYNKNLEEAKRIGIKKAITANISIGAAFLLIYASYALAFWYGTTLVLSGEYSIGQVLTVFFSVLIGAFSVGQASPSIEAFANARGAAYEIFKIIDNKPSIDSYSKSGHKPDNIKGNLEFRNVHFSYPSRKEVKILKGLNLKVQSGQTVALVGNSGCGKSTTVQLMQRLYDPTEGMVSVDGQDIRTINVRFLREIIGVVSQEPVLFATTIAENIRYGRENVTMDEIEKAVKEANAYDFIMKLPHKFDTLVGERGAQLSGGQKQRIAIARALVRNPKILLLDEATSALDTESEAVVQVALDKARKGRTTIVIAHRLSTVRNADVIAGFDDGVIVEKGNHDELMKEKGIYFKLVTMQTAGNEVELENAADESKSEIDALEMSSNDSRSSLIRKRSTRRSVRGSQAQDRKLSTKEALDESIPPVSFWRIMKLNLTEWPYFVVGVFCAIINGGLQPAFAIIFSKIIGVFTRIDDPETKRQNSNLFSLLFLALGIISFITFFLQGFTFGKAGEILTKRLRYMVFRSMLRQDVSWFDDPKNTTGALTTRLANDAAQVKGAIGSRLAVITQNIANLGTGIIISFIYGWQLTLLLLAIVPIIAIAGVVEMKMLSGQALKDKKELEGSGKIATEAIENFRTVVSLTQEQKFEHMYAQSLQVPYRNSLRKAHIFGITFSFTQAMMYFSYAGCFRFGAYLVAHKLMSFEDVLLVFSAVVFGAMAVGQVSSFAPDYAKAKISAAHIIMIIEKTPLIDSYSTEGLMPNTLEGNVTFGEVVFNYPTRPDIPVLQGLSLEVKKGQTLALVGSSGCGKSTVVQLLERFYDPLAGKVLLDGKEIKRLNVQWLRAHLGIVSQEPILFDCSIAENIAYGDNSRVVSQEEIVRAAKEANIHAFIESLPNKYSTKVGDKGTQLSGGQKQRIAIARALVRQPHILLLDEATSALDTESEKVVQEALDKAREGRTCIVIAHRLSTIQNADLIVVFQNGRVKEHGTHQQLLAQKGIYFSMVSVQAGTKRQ
Protocol: as §1, §2, §3

[3] = Extended Clearance Classification System (ECCS) classification; conditions: weak acid, molecular weight higher than 400 g/mol
Caco-2 monolayer = assay: in vitro
Protocol: Validation of the Caco-2 transport experiments required consideration of three parameters, i.e., firstly, to determine the cytotoxic concentrations of synthetic aspalathin, secondly, the concentration of aspalathin required to ensure HPLC detection in the basolateral compartment, and finally, to assess whether the transport of aspalathin is concentration dependent.
Cells were cultured at 37 °C and 5% CO2 in 95% humidified air in Eagle’s Minimum Essential Medium (EMEM) containing sodium […] pyruvate, supplemented with 2 mM L-glutamine, 1% non-essential amino acids and 10% heat inactivated FBS. Cell cultures were split when 70%–80% confluent, using trypsin/ethylenediaminetetraacetic acid (EDTA). The culture medium, pre-warmed to 37 °C, was refreshed every 2–3 days. Cells were seeded at 1 × 10^4 cells/cm^2 and a sub-cultivation ratio of 1:3 was routinely used. Cells were seeded with the addition of 1% penicillin/streptomycin mixture (10,000 units/mL potassium penicillin and 10,000 µg/mL streptomycin sulphate) at 4 × 10^4 cells/cm^2 onto 0.4 µm polycarbonate 6-well inserts with an insert area of 4.52 cm^2. Cells were used for transport experiments when TEER values across wells were >300 Ω, typically 21–23 days post confluence. Only passages 50–60 were used to prevent phenotypic drift.
as §1, §2, §3
Lucifer yellow (final concentration 0.1 mM) was used as a membrane integrity marker and co-incubated with the compounds and extracts.
HPLC-DAD analysis of samples from the apical and basolateral compartments was performed in duplicate on an Agilent 1200 system as previously described. Basolateral and apical samples taken after 2 h with pure aspalathin were also analysed using LC-MS (parameters described in [42]) to determine whether aspalathin metabolites were formed in the Caco-2 model.
All experiments were performed in triplicate and the data expressed as mean ± SD, unless otherwise indicated.

intestinal epithelium = test system: intestinal epithelium; design: method as in earlier work; conditions: ref 37 Huang et al., cited from earlier work

SMILES: O=C(CCc1ccc(O)c(O)c1)c1c(O)cc(O)c([C@@H]2O[C@H](CO)[C@@H](O)[C@H](O)[C@H]2O)c1O [Aspalathin]
- Log D at pH 7.4 [1]: 0.13
- percentage aspalathin degradation ([2]; HEPES buffer pH 6): 10%
- percentage aspalathin degradation ([2]; HEPES buffer pH 7.4): 11%
- percentage aspalathin degradation ([2]; deionised water): 1%
- Efflux Ratio + Inhibitor (phloridzin) (SGLT1): 0.99 ^c
- Papp a-b + Inhibitor (phloridzin) (SGLT1): 1.47 ± 1.10 ^c ×10^−6 cm/s
- Papp b-a + Inhibitor (phloridzin) (SGLT1): 1.47 ± 0.9 ^c ×10^−6 cm/s
- Efflux Ratio + Inhibitor (verapamil) (PgP): 1.1 ^c
- Papp a-b + Inhibitor (verapamil) (PgP): 1.84 ± 0.20 ^c ×10^−6 cm/s
- Papp b-a + Inhibitor (verapamil) (PgP): 1.94 ± 0.68 ^c ×10^−6 cm/s
- ECCS class [3]: 3B
- Papp a-b with high glucose (Caco-2 monolayer; Caco-2): 2.90 ± 0.75 × 10^−7 cm/s
- Papp a-b − Inhibitor (Caco-2 monolayer; Caco-2): 1.73 ± 0.97 ×10^−6 cm/s
- Papp b-a (Caco-2 monolayer; Caco-2): 2.15 ± 0.23 × 10^—6 cm/s
- Papp b-a − Inhibitor (Caco-2 monolayer; Caco-2): 2.09 ± 0.23 ×10^−6 cm/s
- Papp (cm/s) a-b × 10^−6 (Caco-2 monolayer; buffered solution of synthetic aspalathin, 1 µM): 2.28 ± 0.09 cm/s × 10^−6
- Papp (cm/s) a-b × 10^−6 (Caco-2 monolayer; from aspalathin-enriched green rooibos extract SB1, 0.38 mg/mL (153, 11, 17, 9 µM aspalathin, nothofagin, isoorientin, orientin)): 2.00 ± 1.10 cm/s × 10^−6
- Papp (cm/s) a-b × 10^−6 (Caco-2 monolayer; from semi-purified fraction PEF1, 0.15 mg/mL (149, 21, 12, 8 µM aspalathin, nothofagin, isoorientin, orientin)): 2.11 ± 0.20 cm/s × 10^−6
- transport of aspalathin (Papp) (intestinal epithelium; equal concentration of pure aspalathin): 2.48 ± 0.03 × 10^−6 cm/s
- transport of aspalathin (Papp) (intestinal epithelium; from a green rooibos extract solution): 3.49 ± 1.45 × 10^−6 cm/s
